ChEMBL document CHEMBL6134851, “Comparative Study on Covalent and Noncovalent Endogenous Albumin-Binding β-Glucuronidase-Activated SN38 Prodrugs for Antitumor Efficacy” (J Med Chem, 2025)
Activity calls are given as the source filed them. No cut-off for these calls is given here.

Columns and labels:
[1] = test system: HCT-116; assay: Antitumor activity against human HCT-116 cells xenografted in female BALB/cA nude mouse model assessed as relative tumor proliferation rate at 15 mg/kg, iv administered twice per week measured on 107 days relative to control; format: functional; settings: time 107 day
[2] = in vivo; settings: female, BALB/c, mouse, 15 mg/kg
[3] = test system: HCT-116; assay: Antitumor activity against human HCT-116 cells xenografted in female BALB/cA nude mouse model assessed as relative tumor proliferation rate at 15 mg/kg, iv administered twice per week measured after 107 days; format: functional, organism-based; settings: time 107.0 day
[4] = Toxicity in female BALB/cA nude mouse assessed as damage in lung at 15 mg/kg, iv measured after 24 hrs by H and E staining based analysis; format: organism-based; settings: in vivo
[5] = Toxicity in female BALB/cA nude mouse assessed as appearance of loss of alveolar architecture at 15 mg/kg, iv BID for 35 days by H and E staining based analysis; format: organism-based; settings: in vivo, 840 h, time 35 day
[6] = test system: BXPC-3; assay: Antitumor activity against human BXPC-3 cells xenografted in female BALB/cA nude mouse model assessed as suppression of tumor growth by measuring relative tumor proliferation rate at 38 mg/kg, iv measured after 35 days; format: functional, organism-based; settings: time 35.0 day
[7] = Toxicity in female BALB/cA nude mouse assessed as mortality at 15 mg/kg, iv administered twice per week measured after 107 days; format: organism-based; settings: in vivo, 2568 h, time 107 day
[8] = Cmax in female BALB/c mouse at 15 mg/kg measured up to 5 hrs by HPLC analysis; format: ADME, organism-based; settings: in vivo
[9] = Toxicity in female BALB/cA nude mouse assessed as necrosis in tumor tissue at 15 mg/kg, iv measured after 24 hrs by H and E staining based analysis; format: organism-based; settings: in vivo
[10] = Toxicity in female BALB/cA nude mouse assessed as appearance of alveolar wall thickening at 15 mg/kg, iv BID for 35 days by H and E staining based analysis; format: organism-based; settings: in vivo, 840 h, time 35 day
[11] = Toxicity in female BALB/cA nude mouse assessed as pulmonary damage at 15 mg/kg, iv BID for 35 days by H and E staining based analysis; format: organism-based; settings: in vivo, 840 h, time 35 day
[12] = Toxicity in female BALB/cA nude mouse assessed as appearance of fibrosis in heart at 15 mg/kg, iv measured after 24 hrs by H and E staining based analysis; format: organism-based; settings: in vivo
[13] = Prodrug release in female BALB/c nude mouse tumor assessed as (S)-4,11-diethyl-4,9-dihydroxy-1,12-dihydro-14H-pyrano[3',4':6,7]indolizino[1,2-b]quinoline-3,14(4H)-dione accumulation at 15 mg/kg measured after 1 hr by HPLC analysis; format: ADME, organism-based, Neoplasm; settings: in vivo
[14] = Toxicity in female BALB/cA nude mouse assessed as damage in heart at 15 mg/kg, iv measured after 24 hrs by H and E staining based analysis; format: organism-based; settings: in vivo
[15] = test system: BXPC-3; assay: Antitumor activity against human BXPC-3 cells xenografted in female BALB/cA nude mouse model assessed as suppression of tumor growth by measuring relative tumor proliferation rate at 38 mg/kg, iv measured after 24 days relative to control; format: functional; settings: time 24 day
[16] = Toxicity in female BALB/cA nude mouse assessed as effect on body weight loss at 15 mg/kg, iv administered twice per week measured after 107 days; format: organism-based; settings: in vivo, 2568 h, time 107 day
[17] = Toxicity in female BALB/cA nude mouse assessed as appearance of fibrosis in lung at 15 mg/kg, iv measured after 24 hrs by H and E staining based analysis; format: organism-based; settings: in vivo

With CCc1c2c(nc3ccc(OC(=O)N4CCC(N5CCCCC5)CC4)cc13)-c1cc3c(c(=O)n1C2)COC(=O)[C@]3(O)CC [IRINOTECAN] the Activity [1] was 50.36%, the AUC(0-t) at 5 h [2] was 3120 ng·h/mL and the Activity [3] was “inactive”. For the same compound, the Activity [4] was “Toxic”, the Activity [5] was “Toxic” and the Activity [6] was “inactive”. For the same compound, the Activity [7] was “Non-toxic”, the Cmax [8] was 3040 ng/mL and the Activity [9] was “Toxic”. For the same compound, the Activity [10] was “Toxic”, the Activity [11] was “Toxic” and the Activity [12] was “Toxic”. For the same compound, the Drug metabolism [13] was 0.032 % ID/g, the Activity [14] was “Toxic” and the Activity [15] was 43.53%. For the same compound, the Activity [16] was “Toxic” and the Activity [17] was “Toxic”.
